Tests used:
Assay type in all cases: in vivo
[1] = system: AMATA - Common Waterhemp (Amaranthus rudis); assay: Field trial, post-emergence weed control in corn, AMATA
Description: (§1) Field trials were conducted in Tennessee and Illinois (USA). The crop and weed species had been seeded and/or drill sown. In the case of post-emergence evaluation, seeded and/or drill sown plants were grown to a certain growth stage before application of the active ingredients (alone or as a mixture). In the case of pre-emergence evaluation, the application of the active ingredients was carried out after the plants were seeded and/or drilled sown. The trial was in the form of a randomized complete block. The percentage of weed control was assessed in several different instances after treatment until a maximum of 42 days after treatment, by comparison with untreated control plots by visual scoring. The herbicidal action was assessed qualitatively and quantitatively. To quantify the synergic effect resulting from the combination of mesotrione and pyridate, the inventors used the methodology described by Colby, in which a synergistic effect exists when the activity of a composition comprising both active compounds is greater than the sum of the activities of the two active compounds applied individually. The expected activity for the combination of mesotrione and pyridate can be calculated by the following so-called “Colby equation” (see S. R. Colby, “Calculating Synergistic and Antagonistic Responses of Herbicide Combinations”, Weeds 1967, 15, 20-22). Pa+b=(Pa+Pb)−(Pa*Pb/100) Wherein • Pa+b is the expected percent inhibition of weed growth by the combination of mesotrione and pyridate; • Pa is the percent inhibition of weed growth induced by mesotrione; • Pb is the percent inhibition of weed growth induced by pyridate. If the actual percent inhibition of weed growth induced by the combination of mesotrione and pyridate is greater than the expected percent inhibition (Pa+b) calculated from the Colby equation, then the activity of the combination is synergistic. The below Tables represent the herbicidal performance of the composition according to the invention, and also the herbicidal performance of the active ingredients alone, in controlling specific weeds. The expected percent inhibition of weed growth (derived from the Colby's equation) and the actual (observed) percent inhibition of weed growth is also presented in order to conclude on the synergistic effect of the combination according to the invention. Post-Emergence Herbicidal Performance of the Composition According to the Invention Against Broadleaf Weed in Corn.

[2] = system: SETVI - Green foxtail (Setaria viridis); assay: Field trial, post-emergence weed control in corn, SETVI
Description: Field trials were conducted in Tennessee and Illinois (USA). The crop and weed species had been seeded and/or drill sown. In the case of post-emergence evaluation, seeded and/or drill sown plants were grown to a certain growth stage before application of the active ingredients (alone or as a mixture). In the case of pre-emergence evaluation, the application of the active ingredients was carried out after the plants were seeded and/or drilled sown. The trial was in the form of a randomized complete block. The percentage of weed control was assessed in several different instances after treatment until a maximum of 42 days after treatment, by comparison with untreated control plots by visual scoring. The herbicidal action was assessed qualitatively and quantitatively. To quantify the synergic effect resulting from the combination of mesotrione and pyridate, the inventors used the methodology described by Colby, in which a synergistic effect exists when the activity of a composition comprising both active compounds is greater than the sum of the activities of the two active compounds applied individually. The expected activity for the combination of mesotrione and pyridate can be calculated by the following so-called “Colby equation” (see S. R. Colby, “Calculating Synergistic and Antagonistic Responses of Herbicide Combinations”, Weeds 1967, 15, 20-22). Pa+b=(Pa+Pb)−(Pa*Pb/100) Wherein • Pa+b is the expected percent inhibition of weed growth by the combination of mesotrione and pyridate; • Pa is the percent inhibition of weed growth induced by mesotrione; • Pb is the percent inhibition of weed growth induced by pyridate. If the actual percent inhibition of weed growth induced by the combination of mesotrione and pyridate is greater than the expected percent inhibition (Pa+b) calculated from the Colby equation, then the activity of the combination is synergistic. The below Tables represent the herbicidal performance of the composition according to the invention, and also the herbicidal performance of the active ingredients alone, in controlling specific weeds. The expected percent inhibition of weed growth (derived from the Colby's equation) and the actual (observed) percent inhibition of weed growth is also presented in order to conclude on the synergistic effect of the combination according to the invention. […]

[3] = system: IPOHE - Ivyleaf Morningglory (Ipomoea headrace); assay: Field trial, post-emergence weed control in corn, IPOHE
Description: as §1

[4] = system: ELEIN - Goosegrass (Eleusine indica); assay: Field trial, pre-emergence weed control in corn, ELEIN; details: mesotrione 3.85 oz/A, pyridate 6.84 oz/A, combination 3.85 + 6.84 oz/A
Description: (§2) Field trials were conducted in Tennessee and Illinois (USA). The crop and weed species had been seeded and/or drill sown. In the case of post-emergence evaluation, seeded and/or drill sown plants were grown to a certain growth stage before application of the active ingredients (alone or as a mixture). In the case of pre-emergence evaluation, the application of the active ingredients was carried out after the plants were seeded and/or drilled sown. The trial was in the form of a randomized complete block. The percentage of weed control was assessed in several different instances after treatment until a maximum of 42 days after treatment, by comparison with untreated control plots by visual scoring. The herbicidal action was assessed qualitatively and quantitatively. To quantify the synergic effect resulting from the combination of mesotrione and pyridate, the inventors used the methodology described by Colby, in which a synergistic effect exists when the activity of a composition comprising both active compounds is greater than the sum of the activities of the two active compounds applied individually. The expected activity for the combination of mesotrione and pyridate can be calculated by the following so-called “Colby equation” (see S. R. Colby, “Calculating Synergistic and Antagonistic Responses of Herbicide Combinations”, Weeds 1967, 15, 20-22). Pa+b=(Pa+Pb)−(Pa*Pb/100) Wherein • Pa+b is the expected percent inhibition of weed growth by the combination of mesotrione and pyridate; • Pa is the percent inhibition of weed growth induced by mesotrione; • Pb is the percent inhibition of weed growth induced by pyridate. If the actual percent inhibition of weed growth induced by the combination of mesotrione and pyridate is greater than the expected percent inhibition (Pa+b) calculated from the Colby equation, then the activity of the combination is synergistic. The below Tables represent the herbicidal performance of the composition according to the invention, and also the herbicidal performance of the active ingredients alone, in controlling specific weeds. The expected percent inhibition of weed growth (derived from the Colby's equation) and the actual (observed) percent inhibition of weed growth is also presented in order to conclude on the synergistic effect of the combination according to the invention. Pre-Emergence Herbicidal Performance of the Composition According to the Invention Against Broadleaf Weed in Corn.

[5] = system: AMAPA - Palmer Pigweed (Amaranthus palmeri); assay: Field trial, post-emergence weed control in corn, AMAPA; details: mesotrione 3 oz/A, pyridate 6.84 oz/A, combination 3 + 6.84 oz/A
Description: as §1

[6] = system: AMAPA - Palmer Pigweed (Amaranthus palmeri); assay: Field trial, pre-emergence weed control in corn, AMAPA; details: mesotrione 3.85 oz/A, pyridate 6.84 oz/A, combination 3.85 + 6.84 oz/A
Description: as §2

[7] = system: IPOHE - Ivyleaf Morningglory (Ipomoea headrace); assay: Field trial, pre-emergence weed control in corn, IPOHE; details: mesotrione 3.85, pyridate 6.84, combination 3.85 + 6.84 (rate unit not given)
Description: as §2

[8] = 7 days after treatment, mesotrione 2 oz./A, pyridate 2 oz./A, combination 2 + 2 oz./A
[9] = 7 days after treatment, mesotrione 3 oz./A, pyridate 3 oz./A, combination 3 + 3 oz./A
[10] = 7 days after treatment, mesotrione 3 oz./A, pyridate 6.84 oz./A, combination 3 + 6.84 oz./A
[11] = 14 days after treatment, mesotrione 2 oz./A, pyridate 2 oz./A, combination 2 + 2 oz./A
[12] = 14 days after treatment, mesotrione 3 oz./A, pyridate 3 oz./A, combination 3 + 3 oz./A
[13] = 14 days after treatment, mesotrione 3 oz./A, pyridate 6.84 oz./A, combination 3 + 6.84 oz./A
[14] = 28 days after treatment, mesotrione 2 oz./A, pyridate 2 oz./A, combination 2 + 2 oz./A
[15] = 28 days after treatment, mesotrione 3 oz./A, pyridate 3 oz./A, combination 3 + 3 oz./A
[16] = 28 days after treatment, mesotrione 3 oz./A, pyridate 6.84 oz./A, combination 3 + 6.84 oz./A
[17] = 14 days after treatment, mesotrione 2 oz/A, pyridate 2 oz/A, combination 2 + 2 oz/A
[18] = 14 days after treatment, mesotrione 3 oz/A, pyridate 3 oz/A, combination 3 + 3 oz/A
[19] = 21 days after treatment, mesotrione 2 oz/A, pyridate 2 oz/A, combination 2 + 2 oz/A
[20] = 21 days after treatment, mesotrione 3 oz/A, pyridate 3 oz/A, combination 3 + 3 oz/A
[21] = 38 days after treatment, mesotrione 2 oz/A, pyridate 2 oz/A, combination 2 + 2 oz/A
[22] = 38 days after treatment, mesotrione 3 oz/A, pyridate 3 oz/A, combination 3 + 3 oz/A
[23] = 8 days after treatment, mesotrione 2 oz/A, pyridate 2 oz/A, combination 2 + 2 oz/A
[24] = 8 days after treatment, mesotrione 3 oz/A, pyridate 3 oz/A, combination 3 + 3 oz/A
[25] = 8 days after treatment, mesotrione 3 oz/A, pyridate 6.84 oz/A, combination 3 + 6.84 oz/A
[26] = 16 days after treatment, mesotrione 2 oz/A, pyridate 2 oz/A, combination 2 + 2 oz/A
[27] = 16 days after treatment, mesotrione 3 oz/A, pyridate 3 oz/A, combination 3 + 3 oz/A
[28] = 16 days after treatment, mesotrione 3 oz/A, pyridate 6.84 oz/A, combination 3 + 6.84 oz/A
[29] = 21 days after treatment, mesotrione 3 oz/A, pyridate 6.84 oz/A, combination 3 + 6.84 oz/A

| Structure (SMILES) | Mean percentage of weed control (observed) [1, 8] [%] | Mean percentage of weed control (observed) [1, 9] [%] | Mean percentage of weed control (observed) [1, 10] [%] | Mean percentage of weed control (observed) [1, 11] [%] | Mean percentage of weed control (observed) [1, 12] [%] | Mean percentage of weed control (observed) [1, 13] [%] | Mean percentage of weed control (observed) [1, 14] [%] | Mean percentage of weed control (observed) [1, 15] [%] | Mean percentage of weed control (observed) [1, 16] [%] | Mean percentage of weed control (observed) [2, 17] [%] | Mean percentage of weed control (observed) [2, 18] [%] | Mean percentage of weed control (observed) [2, 19] [%] | Mean percentage of weed control (observed) [2, 20] [%] | Mean percentage of weed control (observed) [2, 21] [%] | Mean percentage of weed control (observed) [2, 22] [%] | Mean percentage of weed control (observed) [3, 23] [%] | Mean percentage of weed control (observed) [3, 24] [%] | Mean percentage of weed control (observed) [3, 25] [%] | Mean percentage of weed control (observed) [3, 26] [%] | Mean percentage of weed control (observed) [3, 27] [%] | further results |
| --- | --- | --- | --- | --- | --- | --- | --- | --- | --- | --- | --- | --- | --- | --- | --- | --- | --- | --- | --- | --- | --- |
| CS(=O)(=O)c1ccc(C(=O)C2C(=O)CCCC2=O)c([N+](=O)[O-])c1 [mesotrione, Mesotrione] | 73 | 73 | 68 | 75 | 73 | 80 | 73 | 68 | 85 | 48 | 58 | 50 | 60 | 50 | 60 | 43 | 68 | 65 | 35 | 63 | Mean percentage of weed control (observed) [3, 28]: 78%; Mean percentage of weed control (observed) [3, 19]: 38%; Mean percentage of weed control (observed) [3, 20]: 60%; Mean percentage of weed control (observed) [3, 29]: 75%; Mean percentage of weed control (observed) ([4]; 7 days after treatment): 65%; Mean percentage of weed control (observed) ([4]; 14 days after treatment): 78%; Mean percentage of weed control (observed) ([5]; 8 days after treatment): 53%; Mean percentage of weed control (observed) ([5]; 16 days after treatment): 55%; Mean percentage of weed control (observed) ([5]; 21 days after treatment): 55%; Mean percentage of weed control (observed) ([6]; 7 days after treatment): 62%; Mean percentage of weed control (observed) ([6]; 14 days after treatment): 64%; Mean percentage of weed control (observed) ([6]; 28 days after treatment): 40%; Mean percentage of weed control (observed) ([6]; 42 days after treatment): 34%; Mean percentage of weed control (observed) ([7]; 7 days after treatment): 62%; Mean percentage of weed control (observed) ([7]; 14 days after treatment): 64%; Mean percentage of weed control (observed) ([7]; 28 days after treatment): 40%; Mean percentage of weed control (observed) ([7]; 42 days after treatment): 34% |
| CCCCCCCCSC(=O)Oc1cc(Cl)nnc1-c1ccccc1 [pyridate, Pyridate] | 0 | 0 | 10 | 0 | 0 | 12 | 0 | 0 | 6 | 10 | 10 | 10 | 10 | 10 | 10 | 28 | 40 | 10 | 18 | 10 | Mean percentage of weed control (observed) [3, 28]: 23%; Mean percentage of weed control (observed) [3, 19]: 18%; Mean percentage of weed control (observed) [3, 20]: 10%; Mean percentage of weed control (observed) [3, 29]: 23%; Mean percentage of weed control (observed) ([4]; 7 days after treatment): 37%; Mean percentage of weed control (observed) ([4]; 14 days after treatment): 37%; Mean percentage of weed control (observed) ([5]; 8 days after treatment): 23%; Mean percentage of weed control (observed) ([5]; 16 days after treatment): 33%; Mean percentage of weed control (observed) ([5]; 21 days after treatment): 33%; Mean percentage of weed control (observed) ([6]; 7 days after treatment): 37%; Mean percentage of weed control (observed) ([6]; 14 days after treatment): 42%; Mean percentage of weed control (observed) ([6]; 28 days after treatment): 20%; Mean percentage of weed control (observed) ([6]; 42 days after treatment): 20%; Mean percentage of weed control (observed) ([7]; 7 days after treatment): 37%; Mean percentage of weed control (observed) ([7]; 14 days after treatment): 42%; Mean percentage of weed control (observed) ([7]; 28 days after treatment): 20%; Mean percentage of weed control (observed) ([7]; 42 days after treatment): 20% |

— US11690377B2, “Herbicidal composition and method of use thereof” (Belchim Crop Protection NV, priority 2017, dated 2023)
